The test system of experiment [1] is platelet aggregation. The experiment can be described thus: Impedance platelet aggregometry in whole blood spiked with aspirin +/- Antibody 1. It counts as cell-based. The following applies: Homo sapiens, aspirin 1 mg/mL. The protocol:
Two studies were conducted concurrently. Blood specimens were obtained in EDTA and citrate tubes (6 healthy donors for each study). In the first study, whole blood was spiked with vehicle, aspirin (1 mg/mL), or aspirin (1 mg/mL)+Antibody 1 (125, 250, and 500 nM). Platelet aggregation was measured by impedance platelet aggregometry following induction with collagen (3.2 μg/mL) or arachidonic acid (0.5 mM) (Multiplate® analyzer, COLtest and ASPItest reagents; Roche Diagnostics International Ltd, Rotkreuz, Switzerland).

The test system of experiment [2] is platelet aggregation. The experiment can be described thus: Impedance platelet aggregometry in whole blood spiked with ticagrelor +/- Antibody 1. It counts as cell-based, human. To be noted: ticagrelor 3 μM. How it is done:
In the second study, whole blood was spiked with vehicle, ticagrelor (3 μM), or ticagrelor (3 μM)+Antibody 1 (125, 250, and 500 nM). Platelet aggregation was measured with the same methodology following induction by ADP (6.4 μM) or thrombin receptor activating peptide-6 (TRAP-6, 32 μM).

In experiment [3] the test system is thrombin generation. The experiment can be described thus: Thrombin generation in platelet-rich plasma, Calibrated Automated Thrombogram. The following applies: tissue factor reagent, abciximab 50 nM. It counts as biochemical, human. The protocol:
(§1) Whole blood was obtained in EDTA and citrate tubes (6 healthy donors). Specimens were spiked with vehicle, Antibody 1 (250, 500, or 1000 nM), or abciximab (50 nM). Platelet aggregation was recorded following induction using collagen (1 μg/mL) or TRAP-6 (8 μM) using a multiplate impedance aggregometer. The area under the curve (AUC) for platelet aggregation was determined in arbitrary aggregation*time (AU*min). Thrombin generation was also measured at the above Antibody 1 and abciximab concentrations in platelet-rich plasma using Thrombinoscope CAT (Calibrated Automated Thrombogram; Stago CH S.A. and tissue factor reagent (1 μM); fluorescence was measured by an automated plate reader fluorometer.

Experiment [4] has as its system platelet aggregation. The experiment can be described thus: Whole blood platelet aggregation, multiplate impedance aggregometer (Example 1). It counts as cell-based, human. The following applies: collagen 1 μg/mL, Antibody 1 250, 500 or 1000 nM, abciximab 50 nM, vs vehicle. The protocol: as §1

Read-outs that look alike come from different tables or passages of the source.

Broadly, the inhibition is the drop in the measured response relative to a control, in per cent. `CC(=O)Oc1ccccc1C(=O)O` [aspirin]: the inhibition at 1000 µg/mL was 71% in experiment [1] (arachidonic acid 0.5 mM, p<0.05, read-out: inhibition of platelet aggregation induced with arachidonic acid) and 60% in experiment [1] (collagen 3.2 μg/mL, p<0.05, read-out: inhibition of platelet aggregation induced with collagen).
For the molecule `CCCSc1nc(N[C@@H]2C[C@H]2c2ccc(F)c(F)c2)c2nnn([C@@H]3C[C@H](OCCO)[C@@H](O)[C@H]3O)c2n1` [ticagrelor], the inhibition at 3 µM in experiment [2] (Homo sapiens, Platelet, ADP 6.4 μM, p<0.05, read-out: inhibition of platelet aggregation induced with ADP) turned out to be 54%. Moreover, the “inhibition of platelet aggregation induced with TRAP-6” value in experiment [2] (TRAP-6 32 μM, p<0.05) was 31%.

B1: abciximab (antibody, chains of the INN, looked up, V domains shown)
VH: EVQLQQSGTVLARPGASVKMSCEASGYTFTNYWMHWVKQRPGQGLEWIGAIYPGNSDTSYIQKFKGKAKLTAVTSTTSVYMELSSLTNEDSAVYYCTLYDGYYVFAYWGQGTLVTVSA
VL: EIVLTQSPVTLSVTPGDSVSLSCRASRDISNNLHWFQQTSHESPRLLIKYASQSMSGIPSRFSGSGSGTDFTLSINSVETEDFGMYFCQQTNSWPYTFGGGTKLEIK
modifications: Fab
Regarding B1, the “effect on thrombin generation” value in experiment [3] was “no effect”. Also, the “platelet aggregation induced by collagen” value in experiment [4] is given as “significant reductions”.

These data come from patent US20260232796A1, “COMBINATION THERAPIES WITH AN ANTI-FACTOR XI/FACTOR XIA ANTIBODY” (Anthos Therapeutics, Inc., priority 2022, published 2026).
